ChEMBL document CHEMBL1201862, “PubChem BioAssay data set” (2004)
Each block holds one compound with its values, some of them ahead of it. Active and inactive are the calls of the source.

Columns and labels:
[1] = cytotoxicity in MIN6 insulinoma cells, dose response, cytotoxicity control, cell-based, mouse insulinoma (AID 2122); assay type: functional;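 also: confirmatory high-throughput counterscreen run to flag cytotoxic compounds; mouse MIN-6 beta cells carrying an insulin promoter eGFP reporter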
[2] = insulin promoter down-regulators in MIN6 cells, imaging, high-content screening, mouse beta cells (AID 1628); assay type: functional
HEK293 [3] = assay: optical interference in Abeta FP readout, dose response, artefact control for IDE activator project, biochemical, fluorescence polarization (AID 588442); assay type: functional, cell-based; conditions: Homo sapiens
HEK293 [4] = assay: HEK cell cytotoxicity by LDH release, dose response, cytotoxicity control for IDE activator project, fluorescence, HEK cells (AID 588440); assay type: functional, cell-based; conditions: Homo sapiens;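 also: cytotoxicity by LDH release measuring loss of membrane integrity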
Insulin-degrading enzyme [5] = molecular target: T1, Insulin-degrading enzyme (Homo sapiens, UniProt P14735); assay: activators of endogenous IDE in HEK cells, dose response, cell-based, fluorescence polarization (AID 588439); assay type: functional
T1 sequence (P14735 whole entry): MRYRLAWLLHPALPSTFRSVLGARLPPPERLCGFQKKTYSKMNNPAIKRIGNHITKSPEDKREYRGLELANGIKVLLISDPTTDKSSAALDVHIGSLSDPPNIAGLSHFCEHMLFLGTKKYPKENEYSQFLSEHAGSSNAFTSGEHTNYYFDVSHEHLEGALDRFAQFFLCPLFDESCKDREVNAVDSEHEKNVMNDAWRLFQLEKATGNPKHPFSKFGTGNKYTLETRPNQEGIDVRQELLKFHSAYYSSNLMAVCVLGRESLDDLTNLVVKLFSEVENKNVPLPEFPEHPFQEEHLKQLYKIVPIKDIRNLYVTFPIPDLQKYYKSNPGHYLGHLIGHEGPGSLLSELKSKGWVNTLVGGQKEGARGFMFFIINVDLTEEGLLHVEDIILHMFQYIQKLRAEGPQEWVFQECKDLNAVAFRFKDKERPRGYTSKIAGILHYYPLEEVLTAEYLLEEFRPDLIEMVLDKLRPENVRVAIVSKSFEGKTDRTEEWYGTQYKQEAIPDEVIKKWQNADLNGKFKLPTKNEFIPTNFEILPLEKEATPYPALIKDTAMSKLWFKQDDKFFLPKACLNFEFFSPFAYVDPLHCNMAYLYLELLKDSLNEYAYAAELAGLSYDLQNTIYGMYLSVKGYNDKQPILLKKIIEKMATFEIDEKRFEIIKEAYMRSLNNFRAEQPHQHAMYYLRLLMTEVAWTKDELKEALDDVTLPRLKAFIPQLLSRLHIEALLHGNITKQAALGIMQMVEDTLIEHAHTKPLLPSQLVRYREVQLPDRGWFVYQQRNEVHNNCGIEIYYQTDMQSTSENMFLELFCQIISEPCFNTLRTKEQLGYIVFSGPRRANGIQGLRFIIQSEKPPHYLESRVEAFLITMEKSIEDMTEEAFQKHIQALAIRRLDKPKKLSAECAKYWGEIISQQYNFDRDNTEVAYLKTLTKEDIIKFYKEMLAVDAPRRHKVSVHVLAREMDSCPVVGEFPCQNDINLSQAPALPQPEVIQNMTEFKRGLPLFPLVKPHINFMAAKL

Insulin-degrading enzyme [6] = molecular target: T1, Insulin-degrading enzyme; assay: activators of recombinant IDE enzyme, dose response, counter-screen for IDE activator project, biochemical, fluorescence polarization (AID 588681)
Beta-galactosidase = Beta-galactosidase (Escherichia coli, UniProt Q8VNN2); assay: PubChem AID 485352; assay type: functional
Beta-galactosidase, sequence (Q8VNN2 whole entry): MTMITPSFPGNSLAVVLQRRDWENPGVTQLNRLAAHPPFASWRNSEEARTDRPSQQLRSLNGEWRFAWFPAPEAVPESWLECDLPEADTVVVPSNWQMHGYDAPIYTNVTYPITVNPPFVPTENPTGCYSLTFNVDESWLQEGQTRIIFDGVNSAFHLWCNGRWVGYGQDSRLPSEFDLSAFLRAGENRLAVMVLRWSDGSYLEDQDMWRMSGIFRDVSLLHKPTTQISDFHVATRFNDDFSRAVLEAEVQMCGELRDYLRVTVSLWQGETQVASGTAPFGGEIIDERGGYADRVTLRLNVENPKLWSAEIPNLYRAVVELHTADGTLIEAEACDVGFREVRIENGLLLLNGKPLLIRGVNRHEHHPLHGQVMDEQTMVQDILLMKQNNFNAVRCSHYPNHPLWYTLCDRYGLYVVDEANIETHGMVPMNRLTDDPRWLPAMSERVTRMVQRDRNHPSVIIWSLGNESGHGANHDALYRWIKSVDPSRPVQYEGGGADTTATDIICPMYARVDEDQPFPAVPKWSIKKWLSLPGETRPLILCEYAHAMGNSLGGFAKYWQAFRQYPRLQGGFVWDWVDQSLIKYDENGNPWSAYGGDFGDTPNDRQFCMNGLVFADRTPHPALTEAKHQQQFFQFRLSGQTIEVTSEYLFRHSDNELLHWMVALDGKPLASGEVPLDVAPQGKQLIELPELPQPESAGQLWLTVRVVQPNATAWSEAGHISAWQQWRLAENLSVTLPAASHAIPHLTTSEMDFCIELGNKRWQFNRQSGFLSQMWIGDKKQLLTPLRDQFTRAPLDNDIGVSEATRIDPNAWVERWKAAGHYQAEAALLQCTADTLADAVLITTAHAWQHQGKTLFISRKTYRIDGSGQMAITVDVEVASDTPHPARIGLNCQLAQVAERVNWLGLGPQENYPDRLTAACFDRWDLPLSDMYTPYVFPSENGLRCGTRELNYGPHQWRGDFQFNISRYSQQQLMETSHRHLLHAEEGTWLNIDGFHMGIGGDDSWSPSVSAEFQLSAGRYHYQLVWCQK

[7] = molecular target: T2, Type-1 angiotensin II receptor (Homo sapiens, UniProt P30556); assay: AT1 receptor antagonists, dose response, selectivity assay for APJ receptor antagonist project, cell-based, uHTS hits (AID 463214); assay type: functional;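 also: antagonist potency against angiotensin II stimulated AT1 response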
T2 sequence (P30556 whole entry): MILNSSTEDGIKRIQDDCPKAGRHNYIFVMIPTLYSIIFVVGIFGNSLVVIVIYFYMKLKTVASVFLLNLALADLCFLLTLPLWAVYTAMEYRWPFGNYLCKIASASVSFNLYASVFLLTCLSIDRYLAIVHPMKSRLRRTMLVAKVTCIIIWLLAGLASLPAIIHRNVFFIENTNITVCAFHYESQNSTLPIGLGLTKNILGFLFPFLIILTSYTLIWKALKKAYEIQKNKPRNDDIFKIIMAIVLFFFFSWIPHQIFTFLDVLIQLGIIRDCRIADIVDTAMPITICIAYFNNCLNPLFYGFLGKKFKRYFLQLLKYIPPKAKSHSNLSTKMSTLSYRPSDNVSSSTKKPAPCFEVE

[8] = molecular target: T3, Orexin/Hypocretin receptor type 1 (Homo sapiens, UniProt O43613); assay: Homogeneous Time Resolved Fluorescence (HTRF)-based cell-based high throughput dose response assay for antagonists of the orexin 1 receptor (OX1R; HCRTR1). [Related pubchem assays (depositor defined):AID434989, AID435008, AID463079, AID485270, AID492963, AID492964, AID492965, AID493232, AID504717, AID504718]; assay type: functional
T3 sequence (O43613 whole entry): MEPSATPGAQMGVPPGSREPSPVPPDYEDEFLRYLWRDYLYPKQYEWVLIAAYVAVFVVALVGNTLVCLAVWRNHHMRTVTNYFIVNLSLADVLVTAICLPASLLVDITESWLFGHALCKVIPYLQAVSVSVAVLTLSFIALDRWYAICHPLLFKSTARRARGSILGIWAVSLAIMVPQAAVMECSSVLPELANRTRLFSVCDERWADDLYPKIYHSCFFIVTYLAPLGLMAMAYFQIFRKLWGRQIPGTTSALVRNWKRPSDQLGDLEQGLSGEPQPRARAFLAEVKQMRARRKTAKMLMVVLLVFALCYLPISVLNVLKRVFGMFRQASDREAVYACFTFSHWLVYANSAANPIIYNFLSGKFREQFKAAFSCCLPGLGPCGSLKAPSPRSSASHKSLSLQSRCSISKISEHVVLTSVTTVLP

[9] = molecular target: T3, Orexin/Hypocretin receptor type 1; assay: Fluorescence-based cell-based high throughput dose response assay for antagonists of the orexin 1 receptor (OX1R; HCRTR1). [Related pubchem assays (depositor defined):AID434989, AID435008, AID463079, AID485270, AID492963, AID492964, AID492965, AID493232, AID504717, AID504718]; assay type: functional
CHO-K1 = assay: (§1) Counterscreen for antagonists of the orexin 1 receptor (OX1R; HCRTR1): Homogeneous time resolved fluorescence (HTRF)-based cell-based dose response assay to identify antagonists of the parental CHO-K1 cell line. [Related pubchem assays (depositor defined):AID434989, AID435008, AID463079, AID485270, AID492963, AID492964, AID492965, AID493232, AID504699, AID504701]; assay type: functional; conditions: Cricetulus griseus
[10] = as §1, with “Fluorescence-based” for “Homogeneous time resolved fluorescence (HTRF)-based”, “cell-based high throughput” for “cell-based”, “CHO” for “CHO-K1”; assay type: functional
Vero = Vero cell cytotoxicity, cytotoxicity control for flavivirus capping enzyme inhibitors (AID 588742); assay type: functional; conditions: Chlorocebus sabaeus
[11] = molecular target: Voltage-gated inwardly rectifying potassium channel KCNH2 (Homo sapiens, UniProt Q12809); conditions: Potency;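 also: confirmatory quantitative high-throughput screen measuring inhibition of hERG channel activity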
Voltage-gated inwardly rectifying potassium channel KCNH2, sequence (Q12809 whole entry): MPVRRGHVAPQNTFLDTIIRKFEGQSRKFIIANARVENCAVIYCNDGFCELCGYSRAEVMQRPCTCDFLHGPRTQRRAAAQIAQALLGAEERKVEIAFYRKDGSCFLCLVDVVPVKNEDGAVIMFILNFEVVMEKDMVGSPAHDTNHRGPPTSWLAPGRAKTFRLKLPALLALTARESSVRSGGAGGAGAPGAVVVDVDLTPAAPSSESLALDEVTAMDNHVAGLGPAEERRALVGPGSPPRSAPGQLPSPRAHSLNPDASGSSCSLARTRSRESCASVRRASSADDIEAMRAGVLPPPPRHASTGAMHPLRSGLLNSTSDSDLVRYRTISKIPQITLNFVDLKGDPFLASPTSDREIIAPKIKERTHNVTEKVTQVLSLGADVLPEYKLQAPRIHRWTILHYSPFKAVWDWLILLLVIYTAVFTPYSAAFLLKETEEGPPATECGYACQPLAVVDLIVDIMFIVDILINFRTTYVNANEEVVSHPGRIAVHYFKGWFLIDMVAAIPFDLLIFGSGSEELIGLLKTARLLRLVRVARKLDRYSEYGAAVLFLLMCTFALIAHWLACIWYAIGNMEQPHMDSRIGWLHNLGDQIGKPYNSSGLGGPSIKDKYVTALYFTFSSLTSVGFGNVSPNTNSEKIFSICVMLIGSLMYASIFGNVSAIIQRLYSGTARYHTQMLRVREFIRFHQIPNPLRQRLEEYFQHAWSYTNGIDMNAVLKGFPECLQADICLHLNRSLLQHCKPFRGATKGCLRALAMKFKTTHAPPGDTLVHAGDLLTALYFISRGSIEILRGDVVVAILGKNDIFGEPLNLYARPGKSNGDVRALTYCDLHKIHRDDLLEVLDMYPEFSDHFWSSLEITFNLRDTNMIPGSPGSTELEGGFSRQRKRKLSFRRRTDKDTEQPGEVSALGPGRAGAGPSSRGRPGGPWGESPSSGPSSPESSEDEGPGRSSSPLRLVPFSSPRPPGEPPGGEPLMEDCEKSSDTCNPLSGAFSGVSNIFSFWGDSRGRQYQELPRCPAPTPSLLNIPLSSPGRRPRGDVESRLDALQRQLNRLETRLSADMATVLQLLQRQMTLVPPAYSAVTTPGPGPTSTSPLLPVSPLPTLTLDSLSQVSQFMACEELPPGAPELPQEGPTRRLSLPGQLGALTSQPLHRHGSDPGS

[12] = molecular target: T4, Heat shock factor protein 1 (Mus musculus, UniProt P38532); assay: HSF1 potentiators in luciferase reporter cells, confirmation, cell-based, NIH3T3, luminescence, dose retest (AID 435004); assay type: functional;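 also: stress induced by proteasome inhibitor MG132 added 30 min after compound; luciferase reporter driven by HSF1 response element in NIH3T3 cells; actives raise luminescence as potentiators of the MG132 stress response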
T4 sequence (P38532 whole entry): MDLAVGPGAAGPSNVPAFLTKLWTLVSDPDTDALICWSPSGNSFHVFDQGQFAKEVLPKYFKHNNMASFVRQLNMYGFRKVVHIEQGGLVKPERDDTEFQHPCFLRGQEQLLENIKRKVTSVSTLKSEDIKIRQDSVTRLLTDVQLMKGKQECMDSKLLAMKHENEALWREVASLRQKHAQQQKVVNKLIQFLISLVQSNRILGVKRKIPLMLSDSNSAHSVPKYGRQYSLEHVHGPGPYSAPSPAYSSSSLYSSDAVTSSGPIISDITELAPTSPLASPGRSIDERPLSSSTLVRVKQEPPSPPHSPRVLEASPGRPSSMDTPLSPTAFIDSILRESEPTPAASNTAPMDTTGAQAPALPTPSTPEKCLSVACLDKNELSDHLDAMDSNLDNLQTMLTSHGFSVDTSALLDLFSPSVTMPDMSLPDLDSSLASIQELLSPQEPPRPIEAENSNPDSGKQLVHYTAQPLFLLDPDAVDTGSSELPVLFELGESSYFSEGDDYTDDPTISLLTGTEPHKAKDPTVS

H9c2 = assay: cells; assay type: functional, cell-based; conditions: Rattus norvegicus, H9c2, Myocardium;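 also: confirmatory concentration-response retest of ultra-high-throughput screening hits for modulation of myocardial damage; cell death induced by hydrogen peroxide oxidative stress; compound pretreatment for 60 min then peroxide exposure for 2 h; potency is for protecting the cells against peroxide damage rather than for killing them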
INS1 = assay: beta cell apoptosis inhibitors, cytokine rescue, dose response, luminescence, retest (AID 449756); assay type: functional, cell-based; conditions: Rattus norvegicus;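 also: cell death triggered by IL-1 beta plus TNF-alpha plus IFN-gamma mixture; protective hits raise ATP signal compared with cytokine alone wells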
[13] = molecular target: T5, Apoptotic protease-activating factor 1 (Homo sapiens, UniProt O14727); assay type: functional
T5 sequence (O14727 whole entry): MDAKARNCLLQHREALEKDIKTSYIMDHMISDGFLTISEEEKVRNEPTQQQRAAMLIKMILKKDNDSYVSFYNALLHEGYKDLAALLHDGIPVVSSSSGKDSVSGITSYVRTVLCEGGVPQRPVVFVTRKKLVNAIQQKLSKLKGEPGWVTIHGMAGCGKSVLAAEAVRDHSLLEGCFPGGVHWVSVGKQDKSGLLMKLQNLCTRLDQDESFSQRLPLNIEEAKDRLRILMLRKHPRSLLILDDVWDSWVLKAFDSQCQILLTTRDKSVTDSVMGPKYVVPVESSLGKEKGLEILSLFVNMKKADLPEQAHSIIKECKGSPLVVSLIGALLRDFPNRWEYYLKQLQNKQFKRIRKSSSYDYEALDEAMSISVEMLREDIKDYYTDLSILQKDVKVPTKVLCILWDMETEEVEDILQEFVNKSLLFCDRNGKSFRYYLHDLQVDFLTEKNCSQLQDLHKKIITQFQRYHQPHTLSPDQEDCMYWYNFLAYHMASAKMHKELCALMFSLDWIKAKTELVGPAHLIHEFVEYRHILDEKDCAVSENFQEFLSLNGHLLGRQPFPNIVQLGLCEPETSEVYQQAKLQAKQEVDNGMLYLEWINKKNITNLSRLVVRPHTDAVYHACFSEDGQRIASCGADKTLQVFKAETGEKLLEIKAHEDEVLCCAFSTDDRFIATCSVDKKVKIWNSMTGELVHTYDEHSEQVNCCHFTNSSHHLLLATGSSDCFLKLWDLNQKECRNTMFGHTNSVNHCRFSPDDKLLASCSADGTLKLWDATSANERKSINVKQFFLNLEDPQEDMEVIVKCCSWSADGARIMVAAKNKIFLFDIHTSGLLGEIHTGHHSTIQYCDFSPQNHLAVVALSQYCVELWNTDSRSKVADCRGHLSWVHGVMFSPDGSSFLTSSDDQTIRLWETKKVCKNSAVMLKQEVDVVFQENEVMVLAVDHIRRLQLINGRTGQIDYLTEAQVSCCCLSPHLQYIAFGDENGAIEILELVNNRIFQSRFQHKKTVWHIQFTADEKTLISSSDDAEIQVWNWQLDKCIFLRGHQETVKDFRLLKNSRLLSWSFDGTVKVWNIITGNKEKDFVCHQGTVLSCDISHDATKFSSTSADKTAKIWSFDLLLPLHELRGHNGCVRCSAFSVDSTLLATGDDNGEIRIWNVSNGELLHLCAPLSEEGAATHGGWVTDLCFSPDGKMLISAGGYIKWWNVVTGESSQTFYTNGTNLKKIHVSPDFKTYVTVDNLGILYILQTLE

SMILES: Cc1cc(NC(=O)c2cnn3c(C(F)(F)F)cc(-c4ccccc4)nc23)no1
IC50 [1]: > 16 µM (inactive) | IC50 [2]: 1.99 µM (active)

SMILES: CC(C)CN(C(=O)COC(=O)c1ccc(Br)cc1)c1c(N)n(Cc2ccccc2)c(=O)[nH]c1=O
EC50 (HEK293 [3]): > 55.9 µM (inactive) | IC50 (HEK293 [4]): 13.4 µM (inactive) | EC50 (Insulin-degrading enzyme [5]): > 54.7 µM (inactive) | EC50 (Insulin-degrading enzyme [6]): > 54.7 µM (inactive)

EC50 (Beta-galactosidase): > 40 µM (inactive) | IC50 [7]: > 40 µM (not active)
SMILES: Cc1nn(CCC(=O)NN=C(S)Nc2ccccc2)c(C)c1Br

SMILES: O=c1sc(Nc2ccccc2)nc2ccsc12
IC50 [8]: 2.43 µM (active) | IC50 [9]: 12.9 µM (inactive) | IC50 (CHO-K1): > 66.2 µM (inactive) | IC50 [10]: > 49.8 µM (inactive)

SMILES: COc1ccc(C(=O)NC2CC(C)(C)Cc3occc32)cc1 (stereo not drawn)
CC50 (Vero): > 40 µM (active)

SMILES: O=C=Nc1ccc(Cc2ccc(N=C=O)cc2)cc1
AC50 [11]: 79.4 µM (inconclusive)

EC50 [12]: > 260 µM (inactive) | EC50 (Beta-galactosidase): > 40 µM (inactive) | IC50 [7]: 28.4 µM (not active)
SMILES: COC(=O)C1NN=C(C(=O)c2ccc(Cl)cc2)C1c1ccc(OC)cc1 (stereo not drawn)

SMILES: COc1ccc2c(c1)C(=O)[C@@H](O)[C@H](c1ccc(OC)c(Br)c1)O2
IC50 (H9c2): > 79 µM (inactive) | EC50 (Beta-galactosidase): > 40 µM (inactive) | AC50 (INS1): 4.2 µM (active) | IC50 [7]: 34.6 µM (not active)

SMILES: CCOC(=O)C1(CC2CC2)CCN(Cc2cnc(N(C)C)s2)CC1
EC50 (HEK293 [3]): > 56 µM (inactive) | IC50 (HEK293 [4]): > 89.3 µM (inactive) | EC50 (Insulin-degrading enzyme [5]): > 54.7 µM (inactive) | EC50 (Insulin-degrading enzyme [6]): > 54.7 µM (inactive)

IC50 [13]: > 100 µM (inactive)
SMILES: CC1(C)Cc2cccc(OCC(=O)N3CCN(c4cccc(C(F)(F)F)c4)CC3)c2O1

SMILES: CC(/C=C/c1cccc(Oc2ccc(F)cc2)c1)N(O)C(N)=O (stereo not drawn)
AC50 [11]: 0.2 µM (inconclusive)

SMILES: CCCCOC(=O)c1ccccc1C(=O)OCCCC [DIBUTYL PHTHALATE]
AC50 [11]: 79.4 µM (inconclusive)
